Measured values: US20260060947A1 (INSTITUT PASTEUR DE MONTEVIDEO, priority 2019, published 2026)

Experiments:
NLRP3 inflammasome = assay: Inflammasome activation in THP-1 cells (LPS and ATP), IL-1β ELISA; format: cell-based, Human; details: 30 μM, in first or second signal (LPS and ATP), compared with vehicle
Description: The effect of BANA or BA over NF-κB-dependent gene expression was studied by qPCR using THP-1 cells. THP-1 cells were differentiated into macrophages and treated with BANA (30 μM) or BA (30 μM) for 2 hs, followed by stimulation with LPS (100 ng/mL, for 3-4 h).
For inflammasome activation, THP-1 cells were treated with LPS (as above) followed by exposure to ATP (5 mM, 45 min). IL-1β in the supernatant was then measured by ELISA (B&D OptEIA TM, San Diego, CA, USA).

NF-κB-p65 [1] = assay: LPS-induced NF-κB-p65 nuclear translocation in BV2 cells (immunocytochemistry); format: cell-based, murine; details: BANA 10, 20, 30 μM, BA 30 μM or DMF for 3 hrs before LPS 100 ng/ml
Description: The effect of BANA on nuclear translocation of NF-κB was studied by immunocytochemistry using murine microglia cell line BV2.
Cells were then treated with BANA (10, 20 and 30 μM) or B.A (30 μM) for 3 hrs. After treatment, cells were stimulated with LPS (100 ng/ml) for 30 minutes. Then, cells were washed and fixed with PFA 4% for 20 minutes at 4° C. and washed with PBS. Immunocytochemistry was performed as follows: cells were permeabilized using 0.5% Triton in PBS for 15 minutes, and then blocked using 5% of BSA for 1 h at room temperature. Rabbit anti-NF-κB-p65 (ab16502, 1/200) and mouse anti-CD11b (BD550219, 1/100) were incubated overnight at 4° C. After that, primary antibodies were removed, washed with PBS 3 times for 10 minutes, and Alexa-fluor-conjugated goat anti-rabbit or goat anti-mouse antibodies (1:1000) were incubated for 2 h at room temperature. After secondary antibodies were removed, cells were covered in glycerol mounting medium with 1/2000 DAPI staining. Cells were analyzed by confocal microscopy using a confocal ZEISS LSM 800. NF-κB-p65+ nuclei were counted and ratio of DAPI to NF-κB-p65 labeling was compared among groups. Data were analyzed using analyzing tools of ImageJ and GraphPad Prism 7 software.

NF-κB-p65 [2] = assay: LPS-induced NF-κB-p65 nuclear translocation in SOD1^G93A primary microglia; format: cell-based, rat; details: BANA 10-30 μM before LPS
Description: FIG. 8D: Confocal images show CD11b-positive SOD1^G93A primary microglia (grey) treated with BANA, BA or vehicle, before LPS stimulation. […] Nuclear NF-κB-p65 colocalizing with DAPI nuclear staining is denoted in yellow.
Nuclear NF-κB-p65 colocalizing with DAPI nuclear staining is denoted in yellow. […] Scale bar=20 μm. […] 2 replicates of 3 independent experiments.
The effects of BANA on LPS- or TNFα-induced NF-κB activation were also assayed in cell cultures of BV2 microglial cell line and primary adult microglia isolated from symptomatic SOD1^G93A rats, and HT-29 NF-κB reporter cell line, respectively.

O=C(O)c1ccccc1 [benzoic acid, reference compound]
release of IL-1β (NLRP3 inflammasome): devoid of anti-inflammatory effects
LPS-induced NF-κB-p65 nuclear translocation (NF-κB-p65 [1]): devoid of inhibitory effect
LPS-induced NF-κB-p65 nuclear translocation (NF-κB-p65 [2]): devoid of inhibitory effect
